Measured values published in the NIST ThermoML archive (doi:10.1016/j.jct.2010.06.011).
Numbers after ± are expanded uncertainties.

How the values were obtained:
[1] = Liquid, Vibrating tube method
[2] = xn = mol fraction of the nth substance listed; conditions: Liquid, Vibrating tube method, x2 = 0

CCCCCC [hexane]
mass density [kg/m3], [1]
Conditions	100 kPa	5000 kPa	10000 kPa	20000 kPa	30000 kPa	40000 kPa
293.15 K	659.4 ± 0.3	664.8 ± 0.3	669.7 ± 0.4	678.7 ± 0.5	686.9 ± 0.6	694.3 ± 0.7
298.15 K	654.9 ± 0.3	660.4 ± 0.3	665.5 ± 0.4	674.8 ± 0.5	683.2 ± 0.6	690.7 ± 0.7
303.15 K	650.2 ± 0.3	655.8 ± 0.3	661.2 ± 0.4	670.8 ± 0.5	679.3 ± 0.6	687 ± 0.7
308.15 K	645.7 ± 0.3	651.5 ± 0.3	657 ± 0.4	666.9 ± 0.5	675.8 ± 0.6	683.6 ± 0.7
313.15 K	640.9 ± 0.3	647 ± 0.3	652.8 ± 0.4	663.1 ± 0.5	672.1 ± 0.6	680.2 ± 0.7

COC(=O)OC [dimethyl carbonate]
mass density [kg/m3], [1]
Conditions	100 kPa	5000 kPa	10000 kPa	20000 kPa	30000 kPa	40000 kPa
293.15 K	1069.8 ± 0.3	1074.4 ± 0.3	1078.6 ± 0.3	1086.9 ± 0.3	1094.5 ± 0.3	1101.9 ± 0.4
298.15 K	1063.2 ± 0.3	1068 ± 0.3	1072.4 ± 0.3	1080.8 ± 0.3	1088.7 ± 0.3	1096.2 ± 0.4
303.15 K	1056.5 ± 0.3	1061.3 ± 0.3	1066 ± 0.3	1074.7 ± 0.3	1082.9 ± 0.3	1090.4 ± 0.4
308.15 K	1049.8 ± 0.3	1054.6 ± 0.3	1059.4 ± 0.3	1068.5 ± 0.3	1077 ± 0.3	1084.8 ± 0.3
313.15 K	1043 ± 0.3	1048.1 ± 0.3	1053 ± 0.3	1062.3 ± 0.3	1071 ± 0.3	1079 ± 0.3

CCCCCC [hexane] + COC(=O)OC
mass density [kg/m3], [2]
Conditions	100 kPa	5000 kPa	10000 kPa	20000 kPa	30000 kPa	40000 kPa
293.15 K	659.4 ± 0.3	664.8 ± 0.3	669.7 ± 0.4	678.7 ± 0.5	686.9 ± 0.6	694.3 ± 0.7
298.15 K	654.9 ± 0.3	660.4 ± 0.3	665.5 ± 0.4	674.8 ± 0.5	683.2 ± 0.6	690.7 ± 0.7
303.15 K	650.2 ± 0.3	655.8 ± 0.3	661.2 ± 0.4	670.8 ± 0.5	679.3 ± 0.6	687 ± 0.7
308.15 K	645.7 ± 0.3	651.5 ± 0.3	657 ± 0.4	666.9 ± 0.5	675.8 ± 0.6	683.6 ± 0.7
313.15 K	640.9 ± 0.3	647 ± 0.3	652.8 ± 0.4	663.1 ± 0.5	672.1 ± 0.6	680.2 ± 0.7
